Laboratory results taken from US20150212068A1, “Cholyl-L-Lysyl-Fluorescein Assay” (Novassay SA, priority 2012, published 2015).
Entries after “also recorded” stand apart in the source; their conditions may differ.

Experiments:
serum proteins = experiment: Recovery of spiked CLF from individual human serum samples, classical and labelled-antibody competitive immunoassays; type: in vitro ADME; details: inferred from low recovery of CLF spiked into serum
Protocol: Streptavidin-coated microtitre plate Biotinylated anti-fluorescein antibody, “BJ/C” (NovAssay, using HyTest mouse monoclonal anti-fluorescein, cat code 5F3 2A3 (conjugate ref. DV038/182-1) or AbD Serotec sheep polyclonal anti-fluorescein, cat code 640001 (ref. DV038/182-2) is bound to the plate CLF from the sample competes with CLF-horseradish peroxidase, “CJ/C” (CLF-HRP; NovAssay, DV047/14) for the biotinylated anti-fluorescein antibody Bound CLF-HRP is measured colorimetrically using tetramethylbenzidine (TMB) substrate.
• Streptavidin-coated microtitre plate • Biotin-fluorescein (Sigma B9431) is bound to the plate • CLF from the sample competes with bound biotin-fluorescein for an anti-fluorescein-HRP conjugate (NovAssay, using HyTest mouse monoclonal anti-fluorescein, cat code 5F3 2A3 (conjugate ref. DV047/17-3) • Bound anti-fluorescein-HRP is measured colorimetrically using tetramethylbenzidine (TMB) substrate. […]
Given the success of achieving workable standard curves in both formats, 100 ng/ml of CLF was spiked into a number of individual human serum samples, and the percentage CLF recovery calculated (e.g. 50 ng/ml=50%). […]

[1] = Stability of CLF spiked directly in human plasma at room temperature and 4° C. (Test 3), HPLC-MS/MS; type: in vitro ADME; details: for CLF concentration: human plasma spiked 100 ng/ml, mean ± SEM (n = 2); for CLF remaining: human plasma, vs To; for percentage of compound remaining (by comparing with content at To), lowest over incubation: plasma, up to 24 h
Protocol: Test 3: […] The final concentration of CLF was of 100 ng/ml. Two aliquots of 200 μl of plasma spiked with CLF were taken (To) and the remaining solution was divided in 2 equal fractions. One fraction was incubated at room temperature and the second one was incubated at 4° C. Two aliquots of 200 μl were taken from both fractions after 30 min, 120 min and 24 h of incubation. Samples were stored at −70° C. until further analysis. […] Thus, a stock solution of IS at 100 μg/ml in acetonitrile was 50-fold diluted in acetonitrile in order to obtain a final concentration of 2 μg/ml. Then, 200 μl of this solution were added to each plasma sample in order to precipitate the proteins. Samples were vortexed/mixed and centrifuged 5 min at 20,000 g (4° C.). After centrifugation, the clear supernatant (around 250 μl) was transferred into 1.2 ml HPLC glass vials and sealed. Samples were placed into the refrigerated autosampler and 20 μl were injected into the HPLC-MS/MS system. Test samples were injected twice. […] The injected volume of sample was 20 μl and the “full loop” mode was applied. The temperature of the analytical column was kept at 30° C. CLF and its IS were separated on an Acclaim 120 C18 column (5 μm, 2.1×100 mm, Dionex) by elution with a linear gradient of acetonitrile in water as described in Table 6. An ion trap mass spectrometer equipped with an ESI interface was operated in the positive ionization mode. For each compound, the most abundant ion formed in MS was selected for MS/MS fragmentations. In order to increase the sensitivity and the specificity of the method, the MRM mode was selected. The most specific daughter ions formed in MS/MS were used for quantification.

[2] = room temperature (25 ± 2° C.), 0.0 hours
[3] = room temperature (25 ± 2° C.), 0.5 hours
[4] = room temperature (25 ± 2° C.), 2.0 hours
[5] = room temperature (25 ± 2° C.), 24.0 hours

In the case of `CC(CCC(=O)NC(CCCCNC(=S)Nc1ccc(-c2c3ccc(=O)cc-3oc3cc(O)ccc23)c(C(=O)O)c1)C(=O)O)C1CCC2C3C(O)CC4CC(O)CCC4(C)C3CC(O)C12C` [CLF, Cholyl-L-Lysyl-Fluorescein], the “binding of CLF to serum proteins” value (serum proteins) is reported as “binds to serum proteins; also recorded: significant protein binding”, the “CLF stability directly in plasma” value ([1]; 4° C. and room temperature, 24 h) is reported as “stable for 24 h” and the CLF concentration ([1]; 4° C., 0.0 hours) is reported as 101.9 ± 4.6 ng/mL. For the same compound, the CLF concentration ([1]; 4° C., 0.5 hours) was 101.4 ± 3.5 ng/mL, the CLF concentration ([1]; 4° C., 2.0 hours) was 89.9 ± 3.4 ng/mL and the CLF concentration ([1]; 4° C., 24.0 hours) was 94.5 ± 3.6 ng/mL. The CLF concentration [1, 2] was 101.9 ± 4.6 ng/mL, the CLF concentration [1, 3] was 85.3 ± 0.0 ng/mL and the CLF concentration [1, 4] was 93.2 ± 0.0 ng/mL. For the same compound, the CLF concentration [1, 5] was 100.7 ± 3.3 ng/mL, the CLF remaining ([1]; 4° C., 0.0 hours) was 100.0% and the CLF remaining ([1]; 4° C., 0.5 hours) was 99.5%. It also gave a CLF remaining ([1]; 4° C., 2.0 hours) of 88.2%, a CLF remaining ([1]; 4° C., 24.0 hours) of 92.7% and a CLF remaining [1, 2] of 100.0%. It also gave a CLF remaining [1, 3] of 83.7%, a CLF remaining [1, 4] of 91.4% and a CLF remaining [1, 5] of 98.8%. The plasmatic concentrations measured ([1]; plasma spiked with 100 ng/ml, 4° C. and room temperature, 0-24 h) was 85.3 to 101.9 ng/mL, the “percentage of compound remaining (by comparing with content at To), lowest over incubation” value ([1]; 4° C.) was ≥ 88.2% and the “percentage of compound remaining (by comparing with content at To), lowest over incubation” value ([1]; room temperature) was “at least 83.7%”.
